Molecules are shown by their SMILES.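 Interpolation was linear, between the two tested concentrations surrounding the appropriate level; five concentrations were tested over 48 hours in 96-well plates. Abbreviation: GI50, concentration required for 50% inhibition of growth. TGI is the concentration that stops growth completely.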

The values that follow come from PubChem BioAssay (NCI).

Test systems include MOLT-4 leukemia; EKVX NSCLC; SNB-75 CNS; A549 NSCLC; ACHN renal; M14 melanoma; MCF7 breast; HS 578T breast; SK-MEL-2 melanoma; HT29 colon.
Experiment in all cases: inhibition of tumour cell growth, NCI panel, 48 h

Consider `O=C(/C=C/C=C/c1ccccc1)c1ccco1`, for which the GI50 is 1.92 µM in the assay on MOLT-4 leukemia; 15.5 µM in the assay on EKVX NSCLC; 18 µM in the assay with SNB-75 CNS; 23.8 µM in the assay on A549 NSCLC; 16.9 µM with ACHN renal; 17.3 µM with M14 melanoma. In addition, the GI50 in the assay with MCF7 breast was 1.24 µM; in the assay with HS 578T breast, 17.5 µM; with SK-MEL-2 melanoma, 18.8 µM; in the assay on HT29 colon, 16.7 µM. Further, the TGI with MOLT-4 leukemia stood at 21.5 µM; with EKVX NSCLC it was 62.1 µM; in the assay on SNB-75 CNS, 72.5 µM; with A549 NSCLC it was 77.4 µM; in the assay with ACHN renal, 33.5 µM; with M14 melanoma, 34.8 µM. Also, the TGI in the assay on MCF7 breast came out at 21.6 µM; with HS 578T breast, 52.9 µM; in the assay with SK-MEL-2 melanoma, 37.3 µM; in the assay with HT29 colon it was 33.5 µM.
Turning to `Cc1ccc([N+](=O)[O-])c2c(NCCNC(=O)c3cc(C(=O)NCCNc4ccnc5c(C)ccc([N+](=O)[O-])c45)n(C)n3)ccnc12`, the TGI in the assay with MOLT-4 leukemia was over 46.4 µM; in the assay with EKVX NSCLC it was over 100 µM; in the assay on SNB-75 CNS it was over 87.3 µM; with A549 NSCLC, over 68.8 µM; in the assay with ACHN renal it was over 100 µM; in the assay on M14 melanoma, over 100 µM. The TGI was over 21.5 µM in the assay on MCF7 breast, over 100 µM with HS 578T breast, over 100 µM in the assay with SK-MEL-2 melanoma and over 100 µM in the assay on HT29 colon.
